{
  "source": "patent US7763615B2",
  "about": "“Ecteinascidin analogs for use as antitumour agents” (priority 2001, dated 2010)",
  "key": {"[1]": {"test_system": "NRK-52E, normal rat kidney cells", "conditions": "24 h"}, "[2]": {"test_system": "FDC-P1, normal mouse myelogeous stem cells", "conditions": "24 h", "protocol": "In order to assess the cytotoxicity of the drugs to normal cells, we used 96 well plates plated at a density of 5000 cells per well (except for the FDC-P1 which were plated at 12,000 cells per well) with normal cell lines (ATCC, Table 1) maintained as per the directions of the ATCC: AML-12, normal mouse liver cells; NRK-52E, normal rat kidney cells; L8, normal rat skeletal muscle cells; FDC-P1, normal mouse myelogeous stem cells; and H9c2 (2-1), normal rat cardiac muscle cells. The cells in each plate were permitted to settle overnight before adding the test drug.\nTo each well (100 μl medium) 10 μl of drug in media was added at varying concentrations (1×10-10-0.01 mg/ml final concentration) and further incubated overnight at 37° C. with 5% CO2. After 24 h the following assays were performed. All experiments were repeated at least 3 times and were assayed in duplicate.\nMTS assay (CellTiter 96 aqueous) was performed according to the manufacturer's (Promega) directions (for all cell types). Cell viability (mitochondrial activity) is determined via enzymatic conversion of the formazan substrate."}, "[3]": {"test_system": "L8, normal rat skeletal muscle cells", "conditions": "24 h"}, "[4]": {"test_system": "H9c2 (2-1), normal rat cardiac muscle cells", "conditions": "24 h"}, "[5]": {"test_system": "AML-12, normal mouse liver cells", "conditions": "24 h"}, "DU145": {"test_system": "DU145", "assay": "cells", "assay_type": "cell-based", "conditions": "Homo sapiens, DU-145, 48 h", "method_in_brief": "(§1)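 Readout: SRB OD490, triplicate wells. Setup: 5×10^3 cells/well, RPMI 1640 + 10% FBS, 37° C, 5% CO2; 18 h pre-attachment; 48 h sample exposure, 10 to 10^−8 μg/ml. Outputs GI, TGI (cytostatic), LC (cytotoxic).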"}, "MB231": {"test_system": "MB231", "assay": "cells", "assay_type": "cell-based", "conditions": "Homo sapiens", "method_in_brief": "as §1"}, "A549": {"test_system": "A549", "assay": "cells", "assay_type": "cell-based", "conditions": "Homo sapiens, A549, 48 h", "method_in_brief": "as §1"}, "MCF": {"test_system": "MCF", "assay": "cells", "assay_type": "cell-based", "conditions": "Homo sapiens", "method_in_brief": "as §1"}, "HT29": {"test_system": "HT29", "assay": "cells", "assay_type": "cell-based", "conditions": "Homo sapiens, HT-29, 48 h", "method_in_brief": "as §1"}, "MEL-28": {"test_system": "MEL-28", "assay": "cells", "assay_type": "cell-based", "conditions": "Homo sapiens, SK-MEL-28, 48 h", "method_in_brief": "as §1"}, "SW-620": {"test_system": "SW-620", "assay": "cells", "assay_type": "cell-based", "conditions": "Homo sapiens", "method_in_brief": "as §1"}, "A498": {"test_system": "A498", "assay": "cells", "assay_type": "cell-based", "conditions": "Homo sapiens", "method_in_brief": "as §1"}},
  "data": [
    {"smiles": "COc1c(C)cc2c(c1O)[C@@H]1C3[C@@H]4SC[C@]5(NCCc6c5[nH]c5ccccc65)C(=O)COC[C@@H](c5c6c(c(C)c(OC(C)=O)c54)OCO6)N3[C@@H](O)[C@H](C2)N1C", "note": "(some centres unmarked) [Compound 26]", "values": [
      {"measurement": "Kidney", "setting": "[1]", "value": "4.60E−08"},
      {"measurement": "Myelo", "setting": "[2]", "value": "1.03E−07"},
      {"measurement": "Skeletal", "setting": "[3]", "value": "3.71E−08"},
      {"measurement": "Heart", "setting": "[4]", "value": "6.43E−07"},
      {"measurement": "Liver", "setting": "[5]", "value": "1.06E−06"},
      {"measurement": "GI50", "setting": "DU145; DU145, 48 hours exposure, SRB", "value": 2.65, "unit": "nM"},
      {"measurement": "IC (TGI)", "setting": "DU145; DU145, 48 hours exposure, SRB", "value": 3.97, "unit": "nM"},
      {"measurement": "CC50", "setting": "DU145; read-out: LC50, DU145, 48 hours exposure, SRB", "value": 10.6, "unit": "nM"},
      {"measurement": "CC50", "setting": "MB231; 48 h, read-out: LC50", "value": 13.2, "unit": "nM"},
      {"measurement": "GI50", "setting": "MB231; MB231, 48 hours exposure, SRB", "value": 2.65, "unit": "nM"},
      {"measurement": "IC (TGI)", "setting": "MB231; MB231, 48 hours exposure, SRB, read-out: TGI", "value": 5.3, "unit": "nM"},
      {"measurement": "GI50", "setting": "A549; A549, 48 hours exposure, SRB, read-out: GI50", "value": 2.65, "unit": "nM"},
      {"measurement": "IC (TGI)", "setting": "A549; A549, 48 hours exposure, SRB, read-out: TGI", "value": 3.97, "unit": "nM"},
      {"measurement": "CC50", "setting": "A549; read-out: LC50, A549, 48 hours exposure, SRB", "value": 13.2, "unit": "nM"},
      {"measurement": "CC50", "setting": "MCF; 48 h, read-out: LC50", "value": 11.9, "unit": "nM"},
      {"measurement": "GI50", "setting": "MCF; MCF, 48 hours exposure, SRB", "value": 2.65, "unit": "nM"},
      {"measurement": "IC (TGI)", "setting": "MCF; MCF, 48 hours exposure, SRB, read-out: TGI", "value": 5.3, "unit": "nM"},
      {"measurement": "GI50", "setting": "HT29; HT29, 48 hours exposure, SRB", "value": 3.97, "unit": "nM"},
      {"measurement": "IC (TGI)", "setting": "HT29; HT29, 48 hours exposure, SRB", "value": 7.95, "unit": "nM"},
      {"measurement": "CC50", "setting": "HT29; read-out: LC50, HT29, 48 hours exposure, SRB", "value": 13.2, "unit": "nM"},
      {"measurement": "GI50", "setting": "MEL-28; MEL-28, 48 hours exposure, SRB", "value": 2.65, "unit": "nM"},
      {"measurement": "IC (TGI)", "setting": "MEL-28; MEL-28, 48 hours exposure, SRB", "value": 5.3, "unit": "nM"},
      {"measurement": "CC50", "setting": "MEL-28; read-out: LC50, MEL-28, 48 hours exposure, SRB", "value": 10.6, "unit": "nM"},
      {"measurement": "CC50", "setting": "SW-620; SW-620, 48 h, read-out: LC50", "value": 79.5, "unit": "nM"},
      {"measurement": "IC (TGI)", "setting": "SW-620; SW-620, 48 hours exposure, SRB", "value": 7.95, "unit": "nM"},
      {"measurement": "GI50", "setting": "SW-620; SW-620, 48 hours exposure, SRB, read-out: GI50", "value": 2.65, "unit": "nM"},
      {"measurement": "CC50", "setting": "A498; A498, 48 h, read-out: LC50", "value": 26.5, "unit": "nM"},
      {"measurement": "GI50", "setting": "A498; A498, 48 hours exposure, SRB", "value": 2.65, "unit": "nM"},
      {"measurement": "IC (TGI)", "setting": "A498; A498, 48 hours exposure, SRB", "value": 6.62, "unit": "nM"}
    ]}
  ]
}
